From patent US9359352B2, “Substituted benzimidazoles as PI3 kinase inhibitors” (Intellikine LLC, priority 2010, dated 2016)
pIC50: −log10 of the molar value. Values belong to the molecule of their own block, whether it stands above or below them.

Key:
Assay type in all cases: biochemical
PI3K γ = target: T1, PI3K γ (Homo sapiens, UniProt P48736); assay: PI 3-Kinase HTRF inhibition assay, PI3K γ; conditions: in vitro
T1 construct: purchased Upstate

PI3K β = target: T2, PI3K β (Homo sapiens, UniProt P42338); assay: PI 3-Kinase HTRF inhibition assay, PI3K β; conditions: in vitro
T2 construct: purchased Upstate
Experimental: (§1) Commercial kits or systems for assaying PI3-K activities are available. The commercially available kits or systems can be used to screen for inhibitors and/or agonists of PI3-Ks including but not limited to PI 3-Kinase α, β, δ, and γ. An exemplary system is PI 3-Kinase (human) HTRF™ Assay from Upstate. […] Briefly, the assay is a time resolved FRET assay that indirectly measures PIP3 product formed by the activity of a PI3-K. The kinase reaction is performed in a microtitre plate (e.g., a 384 well microtitre plate). The total reaction volume is approximately 20 ul per well. In the first step, each well receives 2 ul of test compound in 20% dimethylsulphoxide resulting in a 2% DMSO final concentration. Next, approximately 14.5 ul of a kinase/PIP2 mixture (diluted in 1× reaction buffer) is added per well for a final concentration of 0.25-0.3 ug/ml kinase and 10 μM PIP2. The plate is scaled and incubated for 15 minutes at room temperature. To start the reaction, 3.5 ul of ATP (diluted in 1× reaction buffer) is added per well for a final concentration of 10 μM ATP. The plate is sealed and incubated for 1 hour at room temperature. The reaction is stopped by adding 5 ul of Stop Solution per well and then 5 ul of Detection Mix is added per well. The plate is sealed, incubated for 1 hour at room temperature, and then read on an appropriate plate reader. Data is analyzed and IC50s are generated using GraphPad Prism 5. For PI3K α, β, δ, and γ, the nM concentration of inhibitor to reach IC50 is provided. […] Similar assays, and others known in the art, can be used to measure the percent inhibition of other kinases, including but not limited to PI3K class II kinases, phosphoinositide 4 kinases (PI4K), and phosphoinositide 5 kinases (PI5K).

PI3K δ = target: T3, PI3K δ (Homo sapiens, UniProt O00329); assay: PI 3-Kinase HTRF inhibition assay, PI3K δ; conditions: in vitro; read-out: PI3K δ IC50
T3 construct: purchased Upstate
Experimental: as §1

PI3K α = target: T4, PI3K α (Homo sapiens, UniProt P42336); assay: PI 3-Kinase HTRF inhibition assay, PI3K α; conditions: in vitro; read-out: PI3K α IC50
T4 construct: purchased Upstate
Experimental: as §1

T1 sequence (P48736 whole entry): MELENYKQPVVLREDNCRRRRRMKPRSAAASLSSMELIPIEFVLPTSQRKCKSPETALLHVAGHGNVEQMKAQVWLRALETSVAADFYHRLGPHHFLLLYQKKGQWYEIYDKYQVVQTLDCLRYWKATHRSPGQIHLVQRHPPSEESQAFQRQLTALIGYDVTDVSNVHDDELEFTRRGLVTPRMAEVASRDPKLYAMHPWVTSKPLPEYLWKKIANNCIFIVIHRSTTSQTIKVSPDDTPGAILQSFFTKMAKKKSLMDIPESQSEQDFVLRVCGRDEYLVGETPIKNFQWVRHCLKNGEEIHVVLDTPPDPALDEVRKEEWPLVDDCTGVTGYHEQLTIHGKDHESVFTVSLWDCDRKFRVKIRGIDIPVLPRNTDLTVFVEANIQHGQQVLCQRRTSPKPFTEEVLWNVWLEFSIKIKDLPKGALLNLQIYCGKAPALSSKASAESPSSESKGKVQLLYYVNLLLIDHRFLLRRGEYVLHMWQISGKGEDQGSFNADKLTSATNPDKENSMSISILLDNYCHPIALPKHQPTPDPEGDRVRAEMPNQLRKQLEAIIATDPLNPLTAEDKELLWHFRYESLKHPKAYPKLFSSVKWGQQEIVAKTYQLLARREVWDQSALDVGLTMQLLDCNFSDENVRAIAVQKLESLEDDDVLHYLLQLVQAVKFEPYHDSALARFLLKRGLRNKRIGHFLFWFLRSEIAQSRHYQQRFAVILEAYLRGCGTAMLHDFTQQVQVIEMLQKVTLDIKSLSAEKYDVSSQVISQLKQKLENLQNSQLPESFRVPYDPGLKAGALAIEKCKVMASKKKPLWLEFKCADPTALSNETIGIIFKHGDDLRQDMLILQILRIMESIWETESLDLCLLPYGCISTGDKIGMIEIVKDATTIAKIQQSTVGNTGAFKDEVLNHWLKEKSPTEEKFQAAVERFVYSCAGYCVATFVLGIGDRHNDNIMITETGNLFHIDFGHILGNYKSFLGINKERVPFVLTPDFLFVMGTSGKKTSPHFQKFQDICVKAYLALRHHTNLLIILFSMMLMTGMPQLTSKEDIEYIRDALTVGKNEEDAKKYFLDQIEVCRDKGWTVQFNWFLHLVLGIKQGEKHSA
T4 sequence (P42336 whole entry): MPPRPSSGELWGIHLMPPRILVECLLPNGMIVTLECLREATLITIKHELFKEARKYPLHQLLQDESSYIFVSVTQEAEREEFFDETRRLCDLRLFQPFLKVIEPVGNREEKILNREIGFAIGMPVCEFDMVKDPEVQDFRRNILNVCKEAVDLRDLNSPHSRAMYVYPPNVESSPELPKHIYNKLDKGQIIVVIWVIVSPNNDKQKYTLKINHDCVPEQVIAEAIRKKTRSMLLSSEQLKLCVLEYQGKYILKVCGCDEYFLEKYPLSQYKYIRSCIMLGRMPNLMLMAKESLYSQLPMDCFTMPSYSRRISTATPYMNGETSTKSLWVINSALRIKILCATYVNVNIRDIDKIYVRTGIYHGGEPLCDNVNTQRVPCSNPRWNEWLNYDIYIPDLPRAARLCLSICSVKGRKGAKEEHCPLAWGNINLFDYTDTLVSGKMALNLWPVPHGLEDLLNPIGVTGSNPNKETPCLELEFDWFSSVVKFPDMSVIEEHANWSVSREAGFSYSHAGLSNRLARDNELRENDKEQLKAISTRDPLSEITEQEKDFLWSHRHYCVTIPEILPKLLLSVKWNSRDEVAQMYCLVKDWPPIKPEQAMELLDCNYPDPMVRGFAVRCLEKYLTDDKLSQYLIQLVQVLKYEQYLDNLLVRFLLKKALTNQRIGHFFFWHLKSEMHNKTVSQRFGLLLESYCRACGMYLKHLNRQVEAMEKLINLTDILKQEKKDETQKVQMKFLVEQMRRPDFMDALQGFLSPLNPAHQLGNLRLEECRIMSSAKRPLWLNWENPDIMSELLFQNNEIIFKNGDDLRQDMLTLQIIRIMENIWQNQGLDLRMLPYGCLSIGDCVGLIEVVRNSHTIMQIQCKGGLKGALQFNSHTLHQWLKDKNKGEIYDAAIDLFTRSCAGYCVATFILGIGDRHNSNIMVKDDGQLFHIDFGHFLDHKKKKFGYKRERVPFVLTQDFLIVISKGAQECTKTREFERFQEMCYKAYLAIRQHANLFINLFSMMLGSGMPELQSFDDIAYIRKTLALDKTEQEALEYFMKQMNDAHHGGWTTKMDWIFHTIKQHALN
T4 sequence (P27986 whole entry partner): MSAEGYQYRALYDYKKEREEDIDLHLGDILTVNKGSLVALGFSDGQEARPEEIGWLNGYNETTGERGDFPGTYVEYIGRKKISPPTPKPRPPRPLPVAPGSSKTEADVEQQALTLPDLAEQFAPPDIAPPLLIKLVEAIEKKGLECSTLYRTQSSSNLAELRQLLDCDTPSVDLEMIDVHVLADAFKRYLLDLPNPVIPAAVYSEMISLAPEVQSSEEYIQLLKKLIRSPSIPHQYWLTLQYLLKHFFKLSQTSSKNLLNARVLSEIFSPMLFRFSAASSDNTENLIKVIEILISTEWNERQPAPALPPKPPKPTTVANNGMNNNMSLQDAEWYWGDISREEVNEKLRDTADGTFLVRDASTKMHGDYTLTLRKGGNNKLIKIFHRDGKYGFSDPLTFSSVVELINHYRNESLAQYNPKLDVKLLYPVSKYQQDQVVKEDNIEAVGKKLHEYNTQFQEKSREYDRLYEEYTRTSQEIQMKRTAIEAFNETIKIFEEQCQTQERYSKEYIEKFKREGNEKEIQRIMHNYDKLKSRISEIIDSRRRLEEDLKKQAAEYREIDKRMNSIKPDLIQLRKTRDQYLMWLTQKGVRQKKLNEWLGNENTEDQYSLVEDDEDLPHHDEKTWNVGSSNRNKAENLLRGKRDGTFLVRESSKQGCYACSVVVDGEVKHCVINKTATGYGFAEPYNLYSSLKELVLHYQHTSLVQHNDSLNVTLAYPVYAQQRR
T2 sequence (P42338 whole entry): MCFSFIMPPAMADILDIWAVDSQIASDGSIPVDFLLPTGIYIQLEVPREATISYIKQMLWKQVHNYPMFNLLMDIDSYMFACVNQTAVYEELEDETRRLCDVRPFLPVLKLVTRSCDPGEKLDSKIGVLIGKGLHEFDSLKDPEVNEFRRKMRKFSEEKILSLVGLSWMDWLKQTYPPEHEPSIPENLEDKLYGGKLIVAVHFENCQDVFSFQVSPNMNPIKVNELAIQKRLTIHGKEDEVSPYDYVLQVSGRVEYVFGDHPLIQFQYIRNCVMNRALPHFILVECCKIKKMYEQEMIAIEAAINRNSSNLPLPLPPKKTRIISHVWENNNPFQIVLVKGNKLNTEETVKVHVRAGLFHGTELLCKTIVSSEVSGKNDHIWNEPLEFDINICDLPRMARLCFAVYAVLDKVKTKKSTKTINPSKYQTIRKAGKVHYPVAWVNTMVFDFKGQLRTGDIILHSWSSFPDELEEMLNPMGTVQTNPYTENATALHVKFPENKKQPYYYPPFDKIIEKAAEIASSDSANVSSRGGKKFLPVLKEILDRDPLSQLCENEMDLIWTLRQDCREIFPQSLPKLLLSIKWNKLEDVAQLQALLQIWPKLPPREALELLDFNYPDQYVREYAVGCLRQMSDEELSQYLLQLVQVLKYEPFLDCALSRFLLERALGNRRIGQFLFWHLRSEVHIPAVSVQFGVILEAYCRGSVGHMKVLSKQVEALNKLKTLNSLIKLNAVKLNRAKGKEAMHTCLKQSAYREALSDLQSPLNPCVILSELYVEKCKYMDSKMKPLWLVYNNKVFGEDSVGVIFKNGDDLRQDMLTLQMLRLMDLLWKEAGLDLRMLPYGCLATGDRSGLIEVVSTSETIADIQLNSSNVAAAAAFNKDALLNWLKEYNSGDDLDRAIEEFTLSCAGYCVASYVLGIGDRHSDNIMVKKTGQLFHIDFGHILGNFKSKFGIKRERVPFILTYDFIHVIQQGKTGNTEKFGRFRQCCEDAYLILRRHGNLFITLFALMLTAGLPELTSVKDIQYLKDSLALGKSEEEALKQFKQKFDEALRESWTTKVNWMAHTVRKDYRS
T2 sequence (P27986 whole entry partner): as the sequence (P27986 whole entry partner) above
T3 sequence (O00329 whole entry): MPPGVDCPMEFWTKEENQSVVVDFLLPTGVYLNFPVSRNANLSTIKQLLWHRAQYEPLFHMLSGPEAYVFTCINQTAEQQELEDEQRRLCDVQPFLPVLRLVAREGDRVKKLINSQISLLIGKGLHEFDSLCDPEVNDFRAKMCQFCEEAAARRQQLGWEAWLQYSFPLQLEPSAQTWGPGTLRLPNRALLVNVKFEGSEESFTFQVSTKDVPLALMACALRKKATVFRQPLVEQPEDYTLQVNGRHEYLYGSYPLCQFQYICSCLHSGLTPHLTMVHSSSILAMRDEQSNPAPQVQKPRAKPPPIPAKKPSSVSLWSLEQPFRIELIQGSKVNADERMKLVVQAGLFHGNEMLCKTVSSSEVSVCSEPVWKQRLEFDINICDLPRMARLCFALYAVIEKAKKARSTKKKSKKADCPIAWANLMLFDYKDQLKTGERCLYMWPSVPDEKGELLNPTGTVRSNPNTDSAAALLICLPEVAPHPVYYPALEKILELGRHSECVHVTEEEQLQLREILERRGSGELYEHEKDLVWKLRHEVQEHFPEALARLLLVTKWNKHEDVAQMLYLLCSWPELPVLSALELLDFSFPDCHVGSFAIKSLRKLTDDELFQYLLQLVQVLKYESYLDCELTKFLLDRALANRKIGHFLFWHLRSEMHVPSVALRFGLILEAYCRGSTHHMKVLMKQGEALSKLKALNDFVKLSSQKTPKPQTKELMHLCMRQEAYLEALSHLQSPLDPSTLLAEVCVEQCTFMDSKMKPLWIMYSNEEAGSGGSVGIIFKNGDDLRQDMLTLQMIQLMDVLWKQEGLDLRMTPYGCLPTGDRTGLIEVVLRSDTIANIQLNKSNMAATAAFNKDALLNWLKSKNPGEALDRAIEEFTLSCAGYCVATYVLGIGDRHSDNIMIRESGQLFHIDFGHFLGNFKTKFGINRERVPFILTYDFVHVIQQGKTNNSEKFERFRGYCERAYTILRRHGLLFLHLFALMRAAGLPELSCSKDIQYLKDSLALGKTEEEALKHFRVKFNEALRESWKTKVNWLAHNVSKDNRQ
T3 sequence (P27986 whole entry partner): as the sequence (P27986 whole entry partner) above

- pIC50 (PI3K γ): > 5.00
- pIC50 (PI3K β): < 5.00
- pIC50 (PI3K δ): > 5.00
- pIC50 (PI3K α): > 7.00
SMILES: C[C@H]1CN(C2CN(c3cnc4ccc(-c5ccc6oc(N)nc6c5)nc4n3)C2)CCN1 [Compound 10]

- pIC50 (PI3K γ): > 7.00
- pIC50 (PI3K β): > 5.00
- pIC50 (PI3K δ): < 5.00
- pIC50 (PI3K α): > 7.00
SMILES: Nc1nc2cc(-c3ccc4ncc(C5=CCOCC5)nc4n3)ccc2o1 [Compound 11]

- pIC50 (PI3K γ): < 5.00
- pIC50 (PI3K β): < 5.00
- pIC50 (PI3K δ): > 5.00
- pIC50 (PI3K α): > 7.00
SMILES: C[C@@H]1CN(C2CN(c3cnc4ccc(-c5ccc6oc(N)nc6c5)nc4n3)C2)CCN1 [Compound 12]

- pIC50 (PI3K γ): > 7.00
- pIC50 (PI3K β): < 5.00
- pIC50 (PI3K δ): < 5.00
- pIC50 (PI3K α): > 7.00
SMILES: Nc1nc2cc(-c3ccc4ncc(N5CCC(F)(F)CC5)nc4n3)ccc2o1 [Compound 13]

- pIC50 (PI3K γ): > 7.00
- pIC50 (PI3K β): > 5.00
- pIC50 (PI3K δ): > 5.00
- pIC50 (PI3K α): > 7.00
SMILES: C[C@@H]1COCCN1c1cnc2ccc(-c3ccc4oc(N)nc4c3)nc2n1 [Compound 14]

- pIC50 (PI3K γ): > 7.00
- pIC50 (PI3K β): > 5.00
- pIC50 (PI3K δ): < 5.00
- pIC50 (PI3K α): > 7.00
SMILES: C[C@H]1COCCN1c1cnc2ccc(-c3ccc4oc(N)nc4c3)nc2n1 [Compound 15]

- pIC50 (PI3K β): < 5.00
- pIC50 (PI3K δ): < 5.00
- pIC50 (PI3K α): > 6.00
SMILES: CC1(C)CN(C2CN(c3cnc4ccc(-c5ccc6oc(N)nc6c5)nc4n3)C2)CCO1 [Compound 17]

- pIC50 (PI3K γ): > 7.00
- pIC50 (PI3K α): > 7.00
SMILES: Nc1nc2cc(-c3ccc4ncc(N5CCN(C(=O)C6(N)CC6)CC5)nc4n3)ccc2o1 [Compound 41]

- pIC50 (PI3K γ): > 6.00
- pIC50 (PI3K δ): > 6.00
- pIC50 (PI3K α): > 7.00
SMILES: CC(C)(N)C(=O)N1CCN(c2cnc3ccc(-c4ccc5oc(N)nc5c4)nc3c2)CC1 [Compound 43, 2-amino-1-(4-(6-(2-aminobenzo[d]oxazol-5-yl)-1,5-naphthyridin-3-yl)piperazin-1-yl)-2-methylpropan-1-one]

- pIC50 (PI3K β): > 6.00
- pIC50 (PI3K δ): > 6.00
- pIC50 (PI3K α): > 7.00
SMILES: CC(C)N1CCN(C2CN(c3cnc4ccc(-c5ccc6oc(N)nc6c5)nc4c3)C2)CC1 [Compound 72, 5-(7-(3-(4-isopropylpiperazin-1-yl)azetidin-1-yl)-1,5-naphthyridin-2-yl)benzo[d]oxazol-2-amine]

The next lines start with the molecule.

SMILES: C[C@H]1CN(c2cnc3ccc(-c4ccc5oc(N)nc5c4)nc3n2)CCN1 [Compound 1]
- pIC50 (PI3K γ): > 5.00
- pIC50 (PI3K β): > 7.00
- pIC50 (PI3K δ): > 5.00
- pIC50 (PI3K α): > 6.00

SMILES: Nc1nc2cc(-c3ccc4ncc(N5CCOCC5)nc4n3)ccc2o1 [Compound 2, 5-(3-morpholinopyrido[2,3-b]pyrazin-6-yl)benzo[d]oxazol-2-amine]
- pIC50 (PI3K γ): > 7.00
- pIC50 (PI3K β): > 6.00
- pIC50 (PI3K δ): < 5.00
- pIC50 (PI3K α): > 7.00

SMILES: Nc1nc2cc(-c3ccc4ncc(-c5cccnc5)nc4n3)ccc2o1 [Compound 3]
- pIC50 (PI3K γ): > 6.00
- pIC50 (PI3K β): > 5.00
- pIC50 (PI3K δ): < 5.00
- pIC50 (PI3K α): > 6.00

SMILES: CN1CCN(c2cnc3ccc(-c4ccc5oc(N)nc5c4)nc3n2)CC1 [Compound 4]
- pIC50 (PI3K γ): > 5.00
- pIC50 (PI3K β): > 6.00
- pIC50 (PI3K δ): > 5.00
- pIC50 (PI3K α): > 6.00

SMILES: Nc1nc2cc(-c3ccc4ncc(N5CC(N6CCOCC6)C5)nc4n3)ccc2o1 [Compound 5]
- pIC50 (PI3K γ): > 5.00
- pIC50 (PI3K β): < 5.00
- pIC50 (PI3K δ): > 5.00
- pIC50 (PI3K α): > 7.00

SMILES: CCOC(=O)N1CCN(c2cnc3ccc(-c4ccc5oc(N)nc5c4)nc3n2)CC1 [Compound 6]
- pIC50 (PI3K γ): > 6.00
- pIC50 (PI3K β): > 6.00
- pIC50 (PI3K δ): > 6.00
- pIC50 (PI3K α): > 7.00

SMILES: Nc1nc2cc(-c3ccc4nc(N5CCOCC5)cnc4n3)ccc2o1 [Compound 7]
- pIC50 (PI3K γ): < 5.00
- pIC50 (PI3K β): < 5.00
- pIC50 (PI3K δ): < 5.00
- pIC50 (PI3K α): < 5.00

SMILES: CS(=O)(=O)N1CCN(C2CN(c3cnc4ccc(-c5ccc6oc(N)nc6c5)nc4n3)C2)CC1 [Compound 8]
- pIC50 (PI3K γ): > 6.00
- pIC50 (PI3K β): < 5.00
- pIC50 (PI3K δ): > 5.00
- pIC50 (PI3K α): > 7.00

SMILES: CCOC(=O)N1CC=C(c2cnc3ccc(-c4ccc5oc(N)nc5c4)nc3n2)CC1 [Compound 9]
- pIC50 (PI3K γ): > 7.00
- pIC50 (PI3K β): > 5.00
- pIC50 (PI3K δ): > 5.00
- pIC50 (PI3K α): > 7.00
